Measured values published in patent US10189841B2, “Purinones as ubiquitin-specific protease 1 inhibitors” (Forma Therapeutics, Inc., priority 2015, dated 2019).

These compounds were tested against USP1 (construct USP1 (I-785, GG670, 671AA)/UAF1 (I-677)-Flag) (Homo sapiens (Human), UniProt O94782, G670A/G671A) (assay: Ubiquitin-Rhodamine 110 assay for USP1 activity). Settings: USP1/UAF1 25 pM, Ub-Rh110 25 nM, 30 min preincubation.
Type: biochemical
In short: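 Ub-Rh110 (25 nM, ≪Km) cleavage read at ex 485/em 535 in Tris pH 8.0, CaCl2, GSH, Prionex, Triton X-100. The screen used 10 µM compound, 100 pM USP1/UAF1 and 45 min at RT.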

Sequence of USP1 (construct USP1 (I-785, GG670, 671AA)/UAF1 (I-677)-Flag) (O94782 whole entry G670A/G671A): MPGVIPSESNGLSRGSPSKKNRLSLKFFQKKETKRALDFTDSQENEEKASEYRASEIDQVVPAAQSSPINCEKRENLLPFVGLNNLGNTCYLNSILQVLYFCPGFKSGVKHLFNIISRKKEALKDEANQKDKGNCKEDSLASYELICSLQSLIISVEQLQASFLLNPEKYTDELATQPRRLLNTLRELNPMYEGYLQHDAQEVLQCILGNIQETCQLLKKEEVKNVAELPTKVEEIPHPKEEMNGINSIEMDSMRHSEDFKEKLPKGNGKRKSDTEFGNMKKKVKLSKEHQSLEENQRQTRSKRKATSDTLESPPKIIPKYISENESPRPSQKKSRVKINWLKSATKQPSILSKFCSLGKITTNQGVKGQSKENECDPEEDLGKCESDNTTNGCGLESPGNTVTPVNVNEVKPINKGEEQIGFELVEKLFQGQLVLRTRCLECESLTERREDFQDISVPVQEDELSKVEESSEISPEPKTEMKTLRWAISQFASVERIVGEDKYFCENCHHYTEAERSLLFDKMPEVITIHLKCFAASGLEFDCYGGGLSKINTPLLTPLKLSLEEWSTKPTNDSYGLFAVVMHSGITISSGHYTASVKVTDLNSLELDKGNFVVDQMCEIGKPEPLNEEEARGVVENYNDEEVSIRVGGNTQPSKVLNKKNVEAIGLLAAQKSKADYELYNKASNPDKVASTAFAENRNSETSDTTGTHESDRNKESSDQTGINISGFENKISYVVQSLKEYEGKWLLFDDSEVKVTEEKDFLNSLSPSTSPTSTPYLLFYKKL
Sequence of USP1 (construct USP1 (I-785, GG670, 671AA)/UAF1 (I-677)-Flag) (Q8TAF3 whole entry partner): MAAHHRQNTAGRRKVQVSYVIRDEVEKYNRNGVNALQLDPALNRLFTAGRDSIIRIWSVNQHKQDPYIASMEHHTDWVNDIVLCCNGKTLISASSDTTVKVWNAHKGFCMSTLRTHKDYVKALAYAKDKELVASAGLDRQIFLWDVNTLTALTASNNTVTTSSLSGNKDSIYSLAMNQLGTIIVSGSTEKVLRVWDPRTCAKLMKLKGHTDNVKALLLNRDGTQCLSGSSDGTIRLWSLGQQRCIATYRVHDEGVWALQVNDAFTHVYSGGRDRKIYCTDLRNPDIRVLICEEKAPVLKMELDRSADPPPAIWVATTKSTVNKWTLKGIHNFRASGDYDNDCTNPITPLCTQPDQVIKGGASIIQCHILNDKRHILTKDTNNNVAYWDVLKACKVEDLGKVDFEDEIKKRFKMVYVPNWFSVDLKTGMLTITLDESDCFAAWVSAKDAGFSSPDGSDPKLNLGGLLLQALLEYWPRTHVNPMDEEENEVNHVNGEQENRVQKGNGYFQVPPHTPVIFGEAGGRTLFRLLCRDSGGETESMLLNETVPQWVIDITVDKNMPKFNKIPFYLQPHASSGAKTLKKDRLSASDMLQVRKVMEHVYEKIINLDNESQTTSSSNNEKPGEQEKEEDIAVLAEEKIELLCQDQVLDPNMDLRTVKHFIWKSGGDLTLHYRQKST

Row | Structure (SMILES) | IC50 [nM]
1 | CC(C)c1ccccc1-c1ncc2[nH]c(=O)n(Cc3ccc(-n4ccc([C@@H]5CCCNC5)n4)cc3)c2n1 [Compound I-224, (R)-2-(2-isopropylphenyl)-9-(4-(3-(piperidin-3-yl)-1H-pyrazol-1-yl)benzyl)-7,9-dihydro-8H-purin-8-one] | 50 to 200
2 | CC(C)c1ccccc1-c1ncc2[nH]c(=O)n(C3(c4ccc(-n5cccn5)cc4)CC3)c2n1 [Compound I-226, 9-(1-(4-(1H-pyrazol-1-yl)phenyl)cyclopropyl)-2-(2-isopropylphenyl)-7,9-dihydro-8H-purin-8-one] | < 50
3 | CC(C)c1ccccc1-c1ncc2[nH]c(=O)n(C3(c4ccc(F)cc4)CC3)c2n1 [Compound I-227, 9-(1-(4-fluorophenyl)cyclopropyl)-2-(2-isopropylphenyl)-7,9-dihydro-8H-purin-8-one] | < 50
4 | CC(C)c1ccccc1-c1ncc2c(n1)n(Cc1ccc(OCC3CC3)cc1)c(=O)n2C [Compound I-228, 9-(4-(cyclopropylmethoxy)benzyl)-2-(2-isopropylphenyl)-7-methyl-7,9-dihydro-8H-purin-8-one] | 50 to 200
5 | CC(C)c1ccccc1-c1ncc2c(n1)n(Cc1ccc(OCC3CCOC3)cc1)c(=O)n2C (centres unmarked) [Compound I-229, 2-(2-isopropylphenyl)-7-methyl-9-(4-((tetrahydrofuran-3-yl)methoxy)benzyl)-7,9-dihydro-8H-purin-8-one] | 50 to 200
6 | CC(C)c1ccccc1-c1ncc2c(n1)n(Cc1ccc(OCC3CCCN(C)C3)cc1)c(=O)n2C (centres unmarked) [Compound I-230, 2-(2-isopropylphenyl)-7-methyl-9-(4-((1-methylpiperidin-3-yl)methoxy)benzyl)-7,9-dihydro-8H-purin-8-one] | 200 to 2000
7 | CC(C)c1ccccc1-c1ncc2c(n1)n(Cc1ccc(OCc3ccccn3)cc1)c(=O)n2C [Compound I-231, 2-(2-isopropylphenyl)-7-methyl-9-(4-(pyridin-2-ylmethoxy)benzyl)-7,9-dihydro-8H-purin-8-one] | < 50
8 | CC(C)c1ccccc1-c1ncc2c(n1)n(Cc1ccc(OCc3cncn3C)cc1)c(=O)n2C [Compound I-232, 2-(2-isopropylphenyl)-7-methyl-9-(4-((1-methyl-1H-imidazol-5-yl)methoxy)benzyl)-7,9-dihydro-8H-purin-8-one] | 200 to 2000
9 | CC(C)c1ccccc1-c1ncc2c(n1)n(Cc1ccc(OCCN(C)C)cc1)c(=O)n2C [Compound I-233, 9-(4-(2-(dimethylamino)ethoxy)benzyl)-2-(2-isopropylphenyl)-7-methyl-7,9-dihydro-8H-purin-8-one] | 50 to 200
10 | CC(C)c1ccccc1-c1ncc2c(n1)n(Cc1ccc(OCCCN(C)C)cc1)c(=O)n2C [Compound I-234, 9-(4-(3-(dimethylamino)propoxy)benzyl)-2-(2-isopropylphenyl)-7-methyl-7,9-dihydro-8H-purin-8-one] | > 2000
11 | Cc1cc(COc2ccc(Cn3c(=O)n(C)c4cnc(-c5ccccc5C(C)C)nc43)cc2)no1 [Compound I-235, 2-(2-isopropylphenyl)-7-methyl-9-(4-((5-methylisoxazol-3-yl)methoxy)benzyl)-7,9-dihydro-8H-purin-8-one] | 200 to 2000
12 | CCOCCOc1ccc(Cn2c(=O)n(C)c3cnc(-c4ccccc4C(C)C)nc32)cc1 [Compound I-236, 9-(4-(2-ethoxyethoxy)benzyl)-2-(2-isopropylphenyl)-7-methyl-7,9-dihydro-8H-purin-8-one] | < 50
13 | CC(C)c1ccccc1-c1ncc2c(n1)n(Cc1ccc(OC3CCC3)cc1)c(=O)n2C [Compound I-237, 9-(4-cyclobutoxybenzyl)-2-(2-isopropylphenyl)-7-methyl-7,9-dihydro-8H-purin-8-one] | 50 to 200
14 | CC(C)c1ccccc1-c1ncc2c(n1)n(Cc1ccc(OC3CCOCC3)cc1)c(=O)n2C [Compound I-238, 2-(2-isopropylphenyl)-7-methyl-9-(4-((tetrahydro-2H-pyran-4-yl)oxy)benzyl)-7,9-dihydro-8H-purin-8-one] | 200 to 2000
15 | CC(C)c1ccccc1-c1ncc2c(n1)n(Cc1cccc(OCC3CC3)c1)c(=O)n2C [Compound I-239, 9-(3-(cyclopropylmethoxy)benzyl)-2-(2-isopropylphenyl)-7-methyl-7,9-dihydro-8H-purin-8-one] | > 2000
16 | CC(C)c1ccccc1-c1ncc2c(n1)n(Cc1cccc(OCC3CCOC3)c1)c(=O)n2C (centres unmarked) [Compound I-240, 2-(2-isopropylphenyl)-7-methyl-9-(3-((tetrahydrofuran-3-yl)methoxy)benzyl)-7,9-dihydro-8H-purin-8-one] | 200 to 2000
17 | CC(C)c1ccccc1-c1ncc2c(n1)n(Cc1cccc(OCC3CCCN(C)C3)c1)c(=O)n2C (centres unmarked) [Compound I-241, 2-(2-isopropylphenyl)-7-methyl-9-(3-((1-methylpiperidin-3-yl)methoxy)benzyl)-7,9-dihydro-8H-purin-8-one] | 200 to 2000
18 | CC(C)c1ccccc1-c1ncc2c(n1)n(Cc1cccc(OCc3ccccn3)c1)c(=O)n2C [Compound I-242, 2-(2-isopropylphenyl)-7-methyl-9-(3-(pyridin-2-ylmethoxy)benzyl)-7,9-dihydro-8H-purin-8-one] | > 2000

Row | Structure (SMILES) | IC50 [nM]
19 | CC(C)c1ccccc1-c1ncc2c(n1)n(Cc1cccc(OCc3cncn3C)c1)c(=O)n2C [Compound I-243, 2-(2-isopropylphenyl)-7-methyl-9-(3-((1-methyl-1H-imidazol-5-yl)methoxy)benzyl)-7,9-dihydro-8H-purin-8-one] | 200 to 2000
20 | CC(C)c1ccccc1-c1ncc2c(n1)n(Cc1cccc(OCCN(C)C)c1)c(=O)n2C [Compound I-244, 9-(3-(2-(dimethylamino)ethoxy)benzyl)-2-(2-isopropylphenyl)-7-methyl-7,9-dihydro-8H-purin-8-one] | > 2000
21 | CC(C)c1ccccc1-c1ncc2c(n1)n(Cc1cccc(OCCCN(C)C)c1)c(=O)n2C [Compound I-245, 9-(3-(3-(dimethylamino)propoxy)benzyl)-2-(2-isopropylphenyl)-7-methyl-7,9-dihydro-8H-purin-8-one] | > 2000
22 | CC(C)c1ccccc1-c1ncc2c(n1)n(Cc1cccc(OC3CCC3)c1)c(=O)n2C [Compound I-246, 9-(3-cyclobutoxybenzyl)-2-(2-isopropylphenyl)-7-methyl-7,9-dihydro-8H-purin-8-one] | > 2000
23 | CC(C)c1ccccc1-c1ncc2[nH]c(=O)n(Cc3ccc(-c4cnccn4)cc3)c2n1 [Compound I-247, 2-(2-isopropylphenyl)-9-(4-(pyrazin-2-yl)benzyl)-7,9-dihydro-8H-purin-8-one] | 50 to 200
24 | CC(C)c1ccccc1-c1ncc2[nH]c(=O)n(Cc3ccc(-c4cccc(CCN(C)C)c4)cc3)c2n1 [Compound I-248, 9-((3′-(2-(dimethylamino)ethyl)-[1,1′-biphenyl]-4-yl)methyl)-2-(2-isopropylphenyl)-7,9-dihydro-8H-purin-8-one] | 200 to 2000
25 | CC(C)c1ccccc1-c1ncc2[nH]c(=O)n(Cc3ccc(-c4ccc(CCN(C)C)cc4)cc3)c2n1 [Compound I-249, 9-((4′-(2-(dimethylamino)ethyl)-[1,1′-biphenyl]-4-yl)methyl)-2-(2-isopropylphenyl)-7,9-dihydro-8H-purin-8-one] | 200 to 2000
26 | CC(C)c1ccccc1-c1ncc2[nH]c(=O)n(Cc3ccc(-c4cc(N5CCOCC5)ncn4)cc3)c2n1 [Compound I-250, 2-(2-isopropylphenyl)-9-(4-(6-morpholinopyrimidin-4-yl)benzyl)-7,9-dihydro-8H-purin-8-one] | 50 to 200
27 | CC(C)c1ccccc1-c1ncc2[nH]c(=O)n(Cc3ccc(-c4cncn4C)cc3)c2n1 [Compound I-251, 2-(2-isopropylphenyl)-9-(4-(1-methyl-1H-imidazol-5-yl)benzyl)-7,9-dihydro-8H-purin-8-one] | 200 to 2000
28 | Cc1c(-c2ccc(Cn3c(=O)[nH]c4cnc(-c5ccccc5C(C)C)nc43)cc2)cnn1C [Compound I-252, 9-(4-(1,5-dimethyl-1H-pyrazol-4-yl)benzyl)-2-(2-isopropylphenyl)-7,9-dihydro-8H-purin-8-one] | 50 to 200
29 | Cc1noc(C)c1-c1ccc(Cn2c(=O)[nH]c3cnc(-c4ccccc4C(C)C)nc32)cc1 [Compound I-253, 9-(4-(3,5-dimethylisoxazol-4-yl)benzyl)-2-(2-isopropylphenyl)-7,9-dihydro-8H-purin-8-one] | 200 to 2000
30 | CC(C)c1ccccc1-c1ncc2[nH]c(=O)n(Cc3ccc(-c4cnn(C)c4CC(=O)O)cc3)c2n1 [Compound I-254, 2-(4-(4-((2-(2-isopropylphenyl)-8-oxo-7,8-dihydro-9H-purin-9-yl)methyl)phenyl)-1-methyl-1H-pyrazol-5-yl)acetic acid] | > 2000
31 | CC(C)c1ccccc1-c1ncc2[nH]c(=O)n(Cc3ccc(-c4ncccn4)cc3)c2n1 [Compound I-255, 2-(2-isopropylphenyl)-9-(4-(pyrimidin-2-yl)benzyl)-7,9-dihydro-8H-purin-8-one] | 50 to 200
32 | CC(C)c1ccccc1-c1ncc2[nH]c(=O)n(Cc3ccc(-c4ccnn4C)cc3)c2n1 [Compound I-256, 2-(2-isopropylphenyl)-9-(4-(1-methyl-1H-pyrazol-5-yl)benzyl)-7,9-dihydro-8H-purin-8-one] | < 50
33 | CC(C)c1ccccc1-c1ncc2c(n1)n(Cc1ccc(-c3nccn3C)cc1)c(=O)n2C [Compound I-257, 2-(2-isopropylphenyl)-7-methyl-9-(4-(1-methyl-1H-imidazol-2-yl)benzyl)-7,9-dihydro-8H-purin-8-one] | < 50
34 | Cc1cn(C)c(-c2ccc(Cn3c(=O)n(C)c4cnc(-c5ccccc5C(C)C)nc43)cc2)n1 [Compound I-258, 9-(4-(1,4-dimethyl-1H-imidazol-2-yl)benzyl)-2-(2-isopropylphenyl)-7-methyl-7,9-dihydro-8H-purin-8-one] | < 50
35 | CC(C)c1ccccc1-c1ncc2c(n1)n(Cc1ccc(-c3ccccc3OCCN(C)C)cc1)c(=O)n2C [Compound I-259, 9-((2′-(2-(dimethylamino)ethoxy)-[1,1′-biphenyl]-4-yl)methyl)-2-(2-isopropylphenyl)-7-methyl-7,9-dihydro-8H-purin-8-one] | < 50
